From US6858585B1, “Cyclic depsipeptides and drugs containing the same as the active ingredient” (Nisshin Seifun Group Inc., priority 1996, dated 2005) come the findings set out here.

Type in all cases: cell-based, human
Experiment [1] concerns apolipoprotein B production in Hep G2 cells. Kind of experiment: Production of apolipoprotein B in Hep G2 cells, enzyme immunoassay of cultured broth (Example 2). The note with it: Conc. 1 μM, 7 hours, control = 100. As for the experimental part: (§1) First, 1 ml portions of Hep G2 cells at 1×10^5 cells/ml suspended in D-MEM medium containing 10% fetal bovine serum were poured into a 24-well tissue culture plate and cultivation was carried out at 37° C. under atmosphere of a mixed gas composed of 5% carbon dioxide and 95% air for 3 days. Thereafter, the medium was removed by means of a pipette, 1 ml of fresh D-MEM medium was added and cultivation was again carried out at 37° C. under atmosphere of a mixed gas composed of 5% carbon dioxide and 95% air for one day. Then, the medium was removed by means of a pipette and washed three times with 0.5 ml of fresh D-MEM medium. […]
The sheep antihuman apolipoprotein B IgG fraction (manufactured by Bindingsite Co., Ltd., U.K.) was dissolved in a 0.05M aqueous sodium hydrogencarbonate solution (pH 9.5) at a concentration of 10 μg/ml. […] The reaction was discontinued by the addition of 100 μl of 2N sulfuric acid, and absorbance at 490 nm was measured using absorbance at 650 nm as a control. The absorbance obtained was defined as that of apolipoprotein B. An absolute amount of apolipoprotein B was determined upon a calibration curve drawn up when a commercially available low density lipoprotein (manufactured by Sigma, U.S.A.) was used as a standard. […]

Experiment [2] concerns apolipoprotein A1 production in Hep G2 cells. Kind of experiment: Production of apolipoprotein A1 in Hep G2 cells, enzyme immunoassay of cultured broth (Example 2). The note with it: Conc. 1 μM, 7 hours, control = 100. The procedure: as §1, with “medium. 1 ml of fresh D-MEM medium was added and further 10 μl of a solution of the cyclic depsipeptide of the invention or Compound 1, 4, 5, 6, 7 or 8 dissolved in methanol at the concentration as shown in Table 3 was added.” for “medium.”
It was again washed three times with 300 μl of PBS, 100 μl of the above Cultured Broths 7-10 was added and the mixture was allowed to stand at room temperature for 2 hours. […] The reaction was discontinued by the addition of 100 μl of 2N sulfuric acid, and absorbance at 490 nm was measured using absorbance at 650 nm as a control. An absolute amount of apolipoprotein A1 was determined upon a calibration curve drawn up when a commercially available apolipoprotein Al (manufactured by Sigma, U.S.A.) was used as a standard. […]

The subject of experiment [3] is apolipoprotein E production in Hep G2 cells. Briefly: Production of apolipoprotein E in Hep G2 cells, enzyme immunoassay of cultured broth (Example 2: 7 h with compound). The note with it: Conc. 1 μM, control = 100. As for the experimental part:
The mouse antihuman apolipoprotein E monocional antibody (manufactured by BYOSIS, S. A., France) was dissolved in a 0.05M aqueous sodium hydrogencarbonate solution (pH 9.5) at a concentration of […]. 50 μl of this solution was poured in portions into a Nunk immunoplate, which was then allowed to stand at 4° C. for 16 hours. After washing thrice with 300 μl of PBS, 300 μl of the blocking solution was added and the mixture was allowed to stand at 37° C. for 2 hours.
It was again washed three times with 300 μl of PBS, 50 μl of the above cultured broth 1 was added and the mixture was allowed to stand at room temperature for 2 hours. After washing three times with 300 μl of PBS-T, 50 μl of a 3000-fold diluted solution (10% aqueous Block Ace solution) of goat anti-apolipoprotein E polyclonal antibody (manufactured by Chemicon Co., Ltd., U.S.A.) was added and the mixture was allowed to stand at room temperature for 2 hours. […] The reaction was discontinued by the addition of 100 μl of 2N sulfuric acid, and absorbance at 490 nm was measured using absorbance at 650 nm as a control. An absolute amount of apolipoprotein E in cultured broths 1-6 was determined upon a calibration curve drawn up when a commercially available apolipoprotein E (Chemicon Co., Ltd., U.S.A.) was used as a standard. […]

No end group written: not given here.

Regarding “Compound 7 (QLLVDLI; ester (positions not given here); also: cyclic depsipeptide, ring closure places not given here)”, in experiment [1], the “Relative amount of apolipoprotein B (%)” value is 76%. Besides, the “Relative amount of apolipoprotein A1 (%)” value in experiment [2] is given as 135%. The “Relative amount of apolipoprotein E (%)” value in experiment [3] worked out at 163%.
